Reference: paper PMC9867208, “Lipophilicity and ADMET Analysis of Quinoline-1,4-quinone Hybrids” (Pharmaceutics, 2022)
Read-outs that look alike come from different tables or passages of the source.

Legend:
[1] = Experimental lipophilicity by RP-TLC; settings: for φ0 (hydrophobicity index): φ0 = −RM0/b
Description: The RP-TLC method was used to determine the experimental lipophilicity according to the literature. Modified silica gel was used as the stationary phase and a mixture of tris(hydroxymethyl)aminomethane (TRIS) (0.2 M, pH = 7.4) with acetone as the mobile phase. […] For this reason, an aprotic solvent such as acetone was chosen as the mobile phase.
Spots were visualized in iodine vapor.
The retardation parameter (Rf) was converted to the RM parameter according to Equation (1):(1) RM=log(1/Rf−1)
The RM parameter was calculated for every concentration of acetone and extrapolated to zero concentration of organic solvent in the mobile phase. The chromatographic parameter of lipophilicity (RM0) was calculated using Equation (2):(2) RM=RM0+bC where C is the concentration of acetone in the mobile phase, while b is the slope of the regression plot.
In the next step, the relative lipophilicity parameter RM0 was converted to the absolute lipophilicity parameter logPTLC using the calibration curve.
Lipophilicity correlates with hydrophobicity, which determines the solubility of the compound in water. The hydrophobicity is described by the hydrophobicity index (φ0), which can be calculated according to Equation (4). (4) φ0=−RM0/b

[2] = test system: NAD(P)H quinone dehydrogenase 1 (NQO1); settings: cited from earlier work
[3] = RP-TLC, acetone/TRIS 0.2 M pH 7.4, extrapolated to zero acetone
[4] = from RM0 by calibration curve Equation (3)

SMILES | chromatographic logP [1] | RM0 (chromatographic parameter of lipophilicity) [1, 3] | logPTLC (experimental lipophilicity) [1] | RM0 (chromatographic parameter of lipophilicity) ([1]; pH 7.4) | φ0 (hydrophobicity index) [1] | logPTLC (experimental lipophilicity) [1, 4] | logNQO1 (enzymatic conversion rate of NQO1) [2]
NC(=O)c1ccccc1 [A, benzamide, reference compound] | 0.54 | 0.54 |  |  |  |  | 
CC(=O)Nc1ccccc1 [B, acetanilide, reference compound] |  | 1.11 |  |  |  | 1.19 | 
CC(=O)c1ccc(Br)cc1 [C, 4-bromoacetophenone, reference compound] |  | 2.33 |  |  |  | 2.58 | 
O=C1C(Cl)=C(Oc2cccc3cccnc23)C(=O)c2ncccc21 [Compound 1] |  |  | 1.65 | 1.51 ± 0.02 | 72.87 |  | 3.146
Cc1ccc2cccc(OC3=C(Cl)C(=O)c4cccnc4C3=O)c2n1 [Compound 2] |  |  | 1.84 | 1.68 ± 0.03 | 68.99 |  | 3.112
O=Cc1ccc2cccc(OC3=C(Cl)C(=O)c4cccnc4C3=O)c2n1 [Compound 3] | 1.75 | 1.60 ± 0.03 |  |  | 68.09 |  | 3.041
O=C1C(Cl)=C(Oc2cccc3ccc(Cl)nc23)C(=O)c2ncccc21 [Compound 4] | 2.55 | 2.55 ± 0.02 |  |  | 65.88 |  | 2.903
O=C1C(Cl)=C(Oc2cccc3ccc(N4CCCC4)nc23)C(=O)c2ncccc21 [Compound 5] | 2.6 | 2.35 ± 0.02 |  |  | 74.53 |  | 3.034
O=C1C(Cl)=C(Oc2cccc3ccc(N4CCOCC4)nc23)C(=O)c2ncccc21 [Compound 6] | 2.72 | 2.45 ± 0.04 |  |  | 66.81 |  | 2.053
O=C1C(Cl)=C(Oc2cccc3cccnc23)C(=O)c2cnccc21 [Compound 7] |  |  | 2.40 | 2.17 ± 0.01 | 72.57 |  | 3.083
Cc1ccc2cccc(OC3=C(Cl)C(=O)c4ccncc4C3=O)c2n1 [Compound 8] |  |  | 2.85 | 2.56 ± 0.02 | 74.47 |  | 3.058
O=Cc1ccc2cccc(OC3=C(Cl)C(=O)c4ccncc4C3=O)c2n1 [Compound 9] | 2.72 | 2.45 ± 0.02 |  |  | 73.71 |  | 2.502
O=C1C(Cl)=C(Oc2cccc3ccc(Cl)nc23)C(=O)c2cnccc21 [Compound 10] | 3.63 | 3.25 ± 0.01 |  |  | 78.21 |  | 2.801
O=C1C(Cl)=C(Oc2cccc3ccc(N4CCCC4)nc23)C(=O)c2cnccc21 [Compound 11] | 3.15 | 2.83 ± 0.03 |  |  | 74.76 |  | 2.330
O=C1C(Cl)=C(Oc2cccc3cccnc23)C(=O)c2ccccc21 [Compound 19] |  | 2.90 ± 0.02 |  |  | 78.79 | 3.23 | 3.108
Cc1ccc2cccc(OC3=C(Cl)C(=O)c4ccccc4C3=O)c2n1 [Compound 20] |  | 3.34 ± 0.01 |  |  | 79.55 | 3.73 | 3.100
c1ccc2cc3ccccc3cc2c1 [E, anthracene, reference compound] | 4.45 | 3.97 |  |  |  |  | 
Clc1ccc(C(c2ccc(Cl)cc2)C(Cl)(Cl)Cl)cc1 [F, dichlorodiphenyltrichloroethane, reference compound] |  | 5.60 |  |  |  | 6.31 | 

More lines, main results first:

chromatographic logP [1] | RM0 (chromatographic parameter of lipophilicity) [1, 3] | logPTLC (experimental lipophilicity) [1] | RM0 (chromatographic parameter of lipophilicity) ([1]; pH 7.4) | φ0 (hydrophobicity index) [1] | SMILES | logPTLC (experimental lipophilicity) [1, 4] | logNQO1 (enzymatic conversion rate of NQO1) [2]
3.68 | 3.30 ± 0.02 |  |  | 72.22 | O=C1C(Cl)=C(Oc2cccc3ccc(N4CCOCC4)nc23)C(=O)c2cnccc21 [Compound 12] |  | 2.155
 |  | 2.31 | 2.09 ± 0.02 | 66.07 | Cc1ccc2c(n1)C(=O)C(Oc1cccc3cccnc13)=C(Cl)C2=O [Compound 13] |  | 3.178
 |  | 2.00 | 1.82 ± 0.02 | 69.97 | Cc1ccc2c(n1)C(=O)C(Oc1cccc3ccc(C)nc13)=C(Cl)C2=O [Compound 14] |  | 3.157
2.26 | 2.05 ± 0.01 |  |  | 71.78 | Cc1ccc2c(n1)C(=O)C(Oc1cccc3ccc(C=O)nc13)=C(Cl)C2=O [Compound 15] |  | 2.672
3.3 | 2.96 ± 0.01 |  |  | 69.66 | Cc1ccc2c(n1)C(=O)C(Oc1cccc3ccc(Cl)nc13)=C(Cl)C2=O [Compound 16] |  | 2.949
3.79 | 3.39 ± 0.03 |  |  | 75.30 | Cc1ccc2c(n1)C(=O)C(Oc1cccc3ccc(N4CCCC4)nc13)=C(Cl)C2=O [Compound 17] |  | 2.778
2.98 | 2.69 ± 0.03 |  |  | 68.95 | Cc1ccc2c(n1)C(=O)C(Oc1cccc3ccc(N4CCOCC4)nc13)=C(Cl)C2=O [Compound 18] |  | 2.322
4.61 | 4.11 ± 0.01 |  |  | 80.01 | O=Cc1ccc2cccc(OC3=C(Cl)C(=O)c4ccccc4C3=O)c2n1 [Compound 21] |  | 2.740
5.06 | 4.51 ± 0.02 |  |  | 76.85 | O=C1C(Cl)=C(Oc2cccc3ccc(Cl)nc23)C(=O)c2ccccc21 [Compound 22] |  | 3.000
4.16 | 3.72 ± 0.02 |  |  | 81.13 | O=C1C(Cl)=C(Oc2cccc3ccc(N4CCCC4)nc23)C(=O)c2ccccc21 [Compound 23] |  | 2.549
4.5 | 4.01 ± 0.01 |  |  | 75.95 | O=C1C(Cl)=C(Oc2cccc3ccc(N4CCOCC4)nc23)C(=O)c2ccccc21 [Compound 24] |  | 1.940
